Consider one substance from patent publication EP4122459A1, “COMPOSITION FOR PREVENTING AND TREATING NAIL ALTERATIONS AND DISEASES” (Giuliani S.p.A., priority 2021, dated 2023).

This series concerns HACAT cells. The experiment in a line: In vitro cell proliferation test (MTT assay) on HACAT cells. The format is cell-based, human. The following applies: 48h, highest concentrations: Cocoa 16µg/mL, Zinc 4µg/mL. From the text:
The MTT assay (3-(4,5-dimethylthiazol-2-yl)-2,5-diphenyltetrazolium bromide) is a colorimetric assay used to evaluate in vitro cell proliferation, as it allows to measure proliferation and cell viability through the evaluation of mitochondrial activity (Mosmann et al., 1983). This method is very useful to measure cell growth following treatment with mitogenic agents, antigenic stimuli, growth factors and for cytotoxicity studies. […] Formazan forms crystals, insoluble in the intracellular environment, to which the membranes are substantially impermeable: the molecule can therefore enter the cell, but the product cannot exit if it has been correctly metabolized, that is if the electron transport chains are still metabolically active. The formazan crystals are subsequently solubilized in dimethyl sulfoxide (DMSO), thus causing the solution to color change from yellow to dark blue-violet. The assay was carried out following the method by Mosmann (1983), with some minor modifications. […] The absorbance of the colored solution was measured using a spectrophotometric reader for microplates (BioTek Instruments Inc., BadFriedrichshall, Germany) at a wavelength of 570 nm (reference wavelength at 630 nm). The data were expressed as a percentage of cell viability compared to control cells (ctr), according to the following formula: % cell viability/ctr = (Abssample/Absctr)*100. […]
For orientation: Formazan colour is commonly taken as a measure of viable cells.

Consider Zinc, for which the “cytotoxic activity on HACAT cells” value is “significant (p<0.05) cytotoxic activity”.
